Legend:
[1] = tested on: human NSCLC cell lines A549, H23, H226, H358, H460, and H522; assay: MTS cell viability assay across the NSCLC panel, single agents and constant-ratio combination; format: cell-based; settings: single agent, 1 pM to 10 μM, 3 days; carboplatin judged at 10,000 nM
Experimental: (§1) The human NSCLC (non-small cell lung cancer) cell lines A549, H23, H226, H358, H460, and H522 were seeded in 96 well plates (5000 cells/well); after overnight incubation, the cells were treated with epothilone D or carboplatin alone or epothilone D and carboplatin in combination. Once the IC50 value of each drug was obtained, the combined drug treatment was designed at constant ratios of the two drugs and the treatment schedule varied: either epothilone D or carboplatin was administered first with the second drug added 24 hours later. Cell viability was assayed by the MTS assay. […] Cells were treated with epothilone D or carboplatin at varying concentrations, ranging from 1 pM to 10 μM, for 3 days. Cell viability was determined using the using the MTS assay (Promega). IC50 is defined as the concentration of drug required to inhibit cell growth by 50%.

[2] = tested on: human lung cancer xenograft SK-MES; assay: Human lung cancer xenograft in nude mice; format: in vivo; settings: ip, epothilone D twice a day for 7 days (6 to 14 mg/kg/day), carboplatin daily for 5 days (10 to 40 mg/kg/day), dose dependent
Experimental: (§2) The drug combination was also tested in nude mice bearing the human lung cancer xenografts MV522 and SK-MES. Fragments of human tumor carcinomas harvested from subcutaneously growing tumors in nude mice hosts were implanted subcutaneously. When tumors were approximately 60-75 mg in size (10-14 days after implantation), mice were pair matched into treatment and control groups. Epothilone D was given intraperito-neally twice a day for 7 days (6 to 14 mg/kg/day), carboplatin intraperitoneally every daily for 5 days (10 to 40 mg/kg/day), various combinations of epothilone D (first) and carboplatin (second), or vehicle control.

[3] = tested on: human lung cancer xenograft MV522; assay: Human lung cancer xenograft in nude mice; format: in vivo; settings: ip, epothilone D twice a day for 7 days (6 to 14 mg/kg/day), carboplatin daily for 5 days (10 to 40 mg/kg/day), dose dependent
Experimental: as §2

H460 = assay: MTS cell viability assay, single agents; format: cell-based; settings: Homo sapiens, NCI-H460, 72 h, read-out: IC50 (concentration of drug required to inhibit cell growth by 50%)
Experimental: as §1

H226 = assay: MTS cell viability assay, single agents; format: cell-based; settings: Homo sapiens, NCI-H226, 72 h, read-out: IC50 (concentration of drug required to inhibit cell growth by 50%)
Experimental: as §1

H522 = assay: MTS cell viability assay, single agents; format: cell-based; settings: Homo sapiens, NCI-H522, 72 h, read-out: IC50 (concentration of drug required to inhibit cell growth by 50%)
Experimental: as §1

A549 = assay: MTS cell viability assay, single agents; format: cell-based; settings: Homo sapiens, A549, 72 h, read-out: IC50 (concentration of drug required to inhibit cell growth by 50%)
Experimental: as §1

H23 = assay: MTS cell viability assay, single agents; format: cell-based; settings: Homo sapiens, NCI-H23, 72 h, read-out: IC50 (concentration of drug required to inhibit cell growth by 50%)
Experimental: as §1

H358 = assay: MTS cell viability assay, single agents; format: cell-based; settings: Homo sapiens, NCI-H358, 72 h, read-out: IC50 (concentration of drug required to inhibit cell growth by 50%)
Experimental: as §1

Compound | cytotoxic effects against cultured NSCLC human cancer cell lines [1] | antiproliferative activity (measured as tumor size), single agent [2] | antiproliferative activity (measured as tumor size), single agent [3] | IC50 (H460) | IC50 (H226) | IC50 (H522) | IC50 (A549) | IC50 (H23) | IC50 (H358)
C/C1=C/CC(/C(C)=C/c2csc(C)n2)OC(=O)C[C@H](O)C(C)(C)C(=O)[C@H](C)[C@@H](O)[C@@H](C)CCC1 (stereo partly drawn) [Epothilone D, epothilone D] | potent cytotoxic effects | antiproliferative activity | antiproliferative activity | 33 nM | 50 nM | 40 nM | 40 nM | 37 nM | 40 nM
[NH2][Pt]1([NH2])[O]C(=O)C2(CCC2)C(=O)[O]1 [Carboplatin, carboplatin] | essentially inactive | antiproliferative activity | antiproliferative activity |  |  |  |  |  | 

Source: patent publication US20050215604A1, “Combination therapies with epothilones and carboplatin” (Kosan Biosciences, Inc., priority 2004, published 2005)
